Laboratory results published in patent US6943189B2, “Combination therapy employing ileal bile acid transport inhibiting benzothiepines and HMG CO-A reductase inhibitors” (G.D. Searle & Co., priority 1994, dated 2005).

target: T1, human IBAT (Homo sapiens, UniProt Q12908); experiment: In vitro assay of compounds that inhibit IBAT-mediated uptake of [14C]-taurocholate (TC) in H14 cells; format: cell-based; conditions: [14C]-taurocholate uptake, read-out: Human TC IC50
T1 construct: expressed in transfected cells; host or cells: Baby hamster kidney (BHK) cells, clone H14
T1 sequence (Q12908 1-348): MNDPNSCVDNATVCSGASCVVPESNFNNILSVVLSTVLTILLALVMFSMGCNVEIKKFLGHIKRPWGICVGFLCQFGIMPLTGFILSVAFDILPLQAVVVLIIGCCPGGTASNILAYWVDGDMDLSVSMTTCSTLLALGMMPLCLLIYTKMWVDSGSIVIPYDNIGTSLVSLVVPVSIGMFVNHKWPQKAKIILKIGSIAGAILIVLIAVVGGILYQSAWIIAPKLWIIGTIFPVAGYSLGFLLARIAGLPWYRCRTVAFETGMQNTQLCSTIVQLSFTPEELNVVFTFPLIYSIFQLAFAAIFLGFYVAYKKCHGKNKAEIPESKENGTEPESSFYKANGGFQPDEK
Experimental: In Vitro Assay of Compounds That Inhibit IBAT-Mediated Uptake of [^14C]-Taurocholate (TC) in H14 Cells
Baby hamster kidney cells (BHK) transfected with the cDNA of human IBAT (H14 cells) are seeded at 60,000 cells/well in 96 well Top-Count tissue culture plates for assays run within in 24 hours of seeding, 30,000 cells/well for assays run within 48 hours, and 10,000 cells/well for assays run within 72 hours.
On the day of assay, the cell monolayer is gently washed once with […] assay buffer (Dulbecco's Modified Eaglets medium with 4.5 g/L glucose+0.2% (w/v) fatty acid free bovine serum albumin- (FAF)BSA). To each well 50 ml of a two-fold concentrate of test compound in assay buffer is added along with 50 ml of […] [^14C]-taurocholate in assay buffer (final concentration of […] [^14C]-taurocholate). The cell culture plates are incubated 2 hours at 37° C. prior to gently washing each well twice with […] 4° C. Dulbecco's phosphate-buffered saline (PBS) containing 0.2% (w/v) (FAF)BSA. The wells are then gently washed once with […] 4° C. PBS without (FAF)BSA. To each 200 ml of liquid scintillation counting fluid is added, the plates are heat sealed and shaken for 30 minutes at room temperature prior to measuring the amount of radioactivity in each well on a Packard Top-Count instrument.

SMILES | IC50
CCCC[C@]1(CC)CS(=O)(=O)c2cc(OCCOCCOCCOc3ccc4c(c3)S(=O)(=O)C[C@@](CC)(CCCC)[C@H](O)[C@@H]4c3ccccc3)ccc2[C@@H](c2ccccc2)[C@H]1O [Example 135] | 22000 nM
CCCCC1(CC)CS(=O)(=O)c2ccc(OC)cc2C(c2ccccc2F)C1O (stereo not drawn) [Example 278] | 3000 nM
CCCCC1(CCCC)CS(=O)(=O)c2ccc(NC(=O)OCc3ccccc3)cc2[C@@H](c2ccccc2)[C@H]1O [Example 291] | 600 nM
CCCCC1(CCCC)CS(=O)(=O)c2ccc(NC(C)(C)C)cc2C(c2ccc(F)cc2)C1O (stereo not drawn) [Example 1227] | 250 nM
CCCCC1(CCCC)CS(=O)(=O)c2ccc(N(C)C)cc2C(c2ccc(OCCOCCOCCOc3ccc(C4c5cc(N(C)C)ccc5S(=O)(=O)CC(CCCC)(CCCC)C4O)cc3)cc2)C1O (stereo not drawn) [Example 1261] | 19 nM
CCCCC1(CCCC)CS(=O)(=O)c2ccc(N(C)C)cc2C(c2ccc(OCCOCC[S+](CC)CC)c(F)c2)C1O (stereo not drawn) [Example 1299] | 12 nM
CCCCC1(CCCC)CS(=O)(=O)c2ccc(N(C)C)cc2C(c2cccc(NCCCS(=O)(=O)O)c2)C1O (stereo not drawn) [Example 1451] | 14 nM

More lines, now with the values ahead:

IC50 | SMILES
2400 nM | CCCC[C@@]1(CC)CS(=O)(=O)c2cc(OCCOCCOCCOc3ccc4c(c3)S(=O)(=O)C[C@@](CC)(CCCC)[C@@H](O)[C@H]4c3ccccc3)ccc2[C@@H](c2ccccc2)[C@H]1O [Example 137]
400 nM | CCCCC1(CC)CS(=O)(=O)c2ccc(OC)cc2C(c2cccc(F)c2)C1O (stereo not drawn) [Example 279]
1900 nM | CCCCC1(CCCC)CS(=O)(=O)c2ccc(NCc3ccccc3)cc2[C@@H](c2ccccc2)[C@H]1O [Example 293]
280 nM | CCCCC1(CC)CS(=O)(=O)c2ccc(N(C)C)cc2C(c2ccc(OCCOCCOCCOc3ccc(C4c5cc(N(C)C)ccc5S(=O)(=O)CC(CC)(CCCC)C4O)cc3)cc2)C1O (stereo not drawn) [Example 1211]
24 nM | CCCCC1(CCCC)CS(=O)(=O)c2ccc(N(C)C)cc2C(c2ccc(OCCCCCCCCCCI)cc2)C1O (stereo not drawn) [Example 1269]
24 nM | CCCCC1(CCCC)CS(=O)(=O)c2ccc(N(C)C)cc2C(c2ccc(OCCCCBr)c(F)c2)C1O (stereo not drawn) [Example 1270]
440 nM | CCCCC1(CCCC)CS(=O)(=O)c2ccc(N(C)C)cc2C(c2ccc(OCCCCCCCCCCOc3ccccc3[N+](C)(C)CC)cc2)C1O (stereo not drawn) [Example 1351]
52 nM | CCCCC1(CCCC)CS(=O)(=O)c2ccc(N(C)C)cc2C(c2cccc(OCCOCCOCC[N+](CC)(CCCc3ccccc3)CCCc3ccccc3)c2)C1O (stereo not drawn) [Example 1449]
39 nM | CCCCC1(CCCC)CS(=O)(=O)c2ccc(N(C)C)cc2C(c2ccccc2)C1O (stereo not drawn) [Example 1450]

same assay, conditions: [14C]-taurocholate uptake, read-out: IC50 (In vitro Taurocholate Cell Uptake)

IC50 | SMILES
15000 nM | CCCCC1(CC)CS(=O)(=O)c2ccccc2C(=C2CCCCC2)C1O (stereo not drawn) [Example 10b, 3-Butyl-3-ethyl-4-hydroxy-5-cyclohexylidine-2,3,4,5-tetraydrobenzothiepine-1,1-dioxide]

test system: uptake of [14C]-alanine in H14 cells; experiment: In vitro assay of compounds that inhibit uptake of [14C]-alanine (H14 cells); format: cell-based, hamster; conditions: Mesocricetus auratus

SMILES | inhibition at 100 µM
CCCCC1(CC)CS(=O)(=O)c2ccccc2C(=C2CCCCC2)C1O (stereo not drawn) [Example 10b, 3-Butyl-3-ethyl-4-hydroxy-5-cyclohexylidine-2,3,4,5-tetraydrobenzothiepine-1,1-dioxide] | 68.6%

same assay, conditions: Mesocricetus auratus; @ 1.0 μM; read-out: Alanine Uptake Percent Inhibition @ μM

SMILES | inhibition at 1 µM
CCCC[C@]1(CC)CS(=O)(=O)c2ccc(NC(=O)CCCCCCCCCCC(=O)Nc3ccc4c(c3)[C@@H](c3ccccc3)[C@@H](O)[C@](CC)(CCCC)CS4(=O)=O)cc2[C@@H](c2ccccc2)[C@H]1O [Example 101] | 0%

test system: not listed separately; experiment: Rat Alzet minipump model: fecal weight and fecal bile acid concentration (FBA); format: in vivo; conditions: 20 MPL/DAY, mean (SEM)

SMILES | 24 HR. FECAL WT
CCCC[C@]1(CC)CS(=O)(=O)c2cc(OC)ccc2[C@@H](c2ccccc2)[C@H]1O [Example 25, (3a,4b,5b) 3-Butyl-3-ethyl-4-hydroxy-8-methoxy-5-phenyl-2,3,4,5-tetrahydrobenzothiepine-1,1-dioxide] | 5.7 (0.4) G

test system: not listed separately; experiment: Cholesterol-fed hamsters: fecal weight and fecal bile acid concentration (FBA); format: in vivo, hamster; conditions: mean (SEM), 4% cholestyramine or 0.2% Cpd. No. 25
Experimental: Measurement of Fecal Bile Acid Concentration (FBA)
Total fecal output from individually housed hamsters was collected for 24 or 48 hours, dried under a stream of nitrogen, pulverized and weighed. Approximately 0.1 gram was weighed out and extracted into an organic solvent (butanol/water). Following separation and drying, the residue was dissolved in methanol and the amount of bile acid present was measured enzymatically using the 3a-hydroxysteroid steroid dehydrogenase reaction with bile acids to reduce NAD. (Reference: Mashige, F., et al. (1981) Clin. Chem. 27, 1352).

SMILES | 24 HR. FECAL Wt (G)
CCCC[C@]1(CC)CS(=O)(=O)c2cc(OC)ccc2[C@@H](c2ccccc2)[C@H]1O [Example 25, (3a,4b,5b) 3-Butyl-3-ethyl-4-hydroxy-8-methoxy-5-phenyl-2,3,4,5-tetrahydrobenzothiepine-1,1-dioxide] | 2.4 (0.04) G
